Data set [1] is described as follows: Plasma protein binding, rat. In kind it is in vitro ADME. As to conditions: read-out: Rat Plasma Protein Binding (PPB) (converted).
For the next data set, the target named is T1, Kir3.1(E141A)/4 (Homo sapiens, UniProt P48544+P48549, E141A).
T1 construct: expressed in transfected cells; host or cells: Xenopus laevis oocytes (cRNA injection)
Nature of the data set: TEVC in Xenopus oocytes, Kir3.1(E141A)/4. It is filed as cell-based. As to conditions: 1 μM.

The target of the next data set is T2, Kir3.1/2 channel (UniProt P48542+P48549).
T2 sequence (P48549 1-501): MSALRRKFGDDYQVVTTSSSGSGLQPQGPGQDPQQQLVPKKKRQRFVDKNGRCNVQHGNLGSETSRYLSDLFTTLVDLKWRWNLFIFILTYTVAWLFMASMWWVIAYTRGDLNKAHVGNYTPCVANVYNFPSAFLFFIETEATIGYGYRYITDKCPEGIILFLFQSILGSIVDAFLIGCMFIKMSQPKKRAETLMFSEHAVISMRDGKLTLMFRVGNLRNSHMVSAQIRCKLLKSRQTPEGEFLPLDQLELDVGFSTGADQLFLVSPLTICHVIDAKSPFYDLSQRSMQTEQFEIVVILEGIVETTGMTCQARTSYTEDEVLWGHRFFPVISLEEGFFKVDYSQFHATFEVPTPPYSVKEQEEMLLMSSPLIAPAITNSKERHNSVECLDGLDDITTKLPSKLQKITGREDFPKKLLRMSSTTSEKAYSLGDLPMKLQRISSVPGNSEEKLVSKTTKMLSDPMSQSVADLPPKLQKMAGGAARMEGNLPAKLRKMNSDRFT
T2 sequence (P48542 1-425): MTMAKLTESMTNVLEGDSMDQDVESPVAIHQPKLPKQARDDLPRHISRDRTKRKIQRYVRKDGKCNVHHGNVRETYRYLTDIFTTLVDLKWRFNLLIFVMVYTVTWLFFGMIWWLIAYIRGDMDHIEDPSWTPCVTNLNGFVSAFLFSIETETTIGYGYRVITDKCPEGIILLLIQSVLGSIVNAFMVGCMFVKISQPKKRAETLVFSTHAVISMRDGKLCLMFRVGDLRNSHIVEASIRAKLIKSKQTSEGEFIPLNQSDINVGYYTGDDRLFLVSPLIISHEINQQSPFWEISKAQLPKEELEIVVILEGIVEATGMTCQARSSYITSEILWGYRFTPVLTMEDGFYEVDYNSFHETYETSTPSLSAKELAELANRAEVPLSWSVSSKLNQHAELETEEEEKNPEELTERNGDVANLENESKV
Description: TEVC in Xenopus oocytes, Kir3.1/2. In kind it is cell-based, human Kir3.1, mouse Kir3.2. Also on record: expressed in transfected cells. The settings on record: TEVC oocyte experiments; read-out: IC50, inhibition of Kir3.1/2. The procedure: (§1) X. laevis oocytes were isolated and microinjected as previously described ([6]). Human Kir3.1, mouse Kir3.2, and human Kir3.4 DNA constructs were used for electrophysiology experiments. All cRNA constructs were injected in the amount of 2 ng per oocyte. Injected oocytes were incubated for 2 to 3 days at 18 °C to allow for expression. Whole-cell oocyte currents were then measured using a GeneClamp 500 amplifier (Axon Instruments). Microelectrodes had resistances of 0.5 to 1 megohm using a 3M KCl solution in 1.4% agarose. Oocytes were perfused with a low K^+ (LK) solution ND96 (2 mM KCl, 96 mM NaCl, 1 mM MgCl2, 1.8 mM CaCl2, 5 mM HEPES-Na) to establish a baseline for the recordings. Basal current was measured in a high potassium (HK) solution ND96K (96 mM KCl, 10 mM HEPES-K, 1 mM MgCl2, 1.8 mM CaCl2). To block the current, the oocyte chamber was perfused with 4 mM BaCl2 in ND96K. Only the Barium-sensitive current was used for statistical analysis. To measure the inhibitory activity of the channels, 1 μM BP-G1 in ND96K (HK) was used. Typically, oocytes were held at 0 mV (EK) and the current was monitored constantly using a ramp protocol with a command potential from −80 to +80 mV. Current amplitude was measured at the end of a 1 s sweep. All currents were analyzed when they reached steady state. Error bars in the figures represent SD (N > 4).

The next data set has as its system IKACh. Nature of the data set: In vivo ECG, carbachol-induced heart rate slowing in anesthetized mice. The settings on record: 40 μl of 240 μM via jugular vein. The procedure:
We tested the in vivo effects of BP-G1 versus those of BP-G1(SR) on heart rate in anesthetized adult mice (Fig. 8). ECG was continuously recorded. Panel A is the ECG showing that after carbachol (300 μl of 200 μM) was administered, i.p. (red mark), the heart decelerated, with a visible RR prolongation. About 10 min after carbachol injection, BP-G1 was delivered via the jugular vein (40 μl of 240 μM) (green mark). Within 5 min, there was a reversal of carbachol’s effects on the heart rate. Panel B is a control mouse showing heart rate slowing after carbachol administration (red mark).
Mice were anesthetized (1.5% isofluorane), and a 1.2 French octapolar catheter (Millar) with a drug delivery port was placed transvenously, through the jugular vein, into the right atrium. Continuous ECG was recorded using the Animal Bio Amp and PowerLab 4/35 Advanced Instruments apparatus. […] Saline control at the same volume was performed. Results are averages ±SD.

The target in another data set is T3, Kir3.4/4(S143F, N179D) (Homo sapiens, UniProt P48544, N179D/S143F).
T3 construct: expressed in transfected cells; host or cells: Xenopus laevis oocytes (cRNA injection)
T3 sequence (P48544 whole entry S143F/N179D): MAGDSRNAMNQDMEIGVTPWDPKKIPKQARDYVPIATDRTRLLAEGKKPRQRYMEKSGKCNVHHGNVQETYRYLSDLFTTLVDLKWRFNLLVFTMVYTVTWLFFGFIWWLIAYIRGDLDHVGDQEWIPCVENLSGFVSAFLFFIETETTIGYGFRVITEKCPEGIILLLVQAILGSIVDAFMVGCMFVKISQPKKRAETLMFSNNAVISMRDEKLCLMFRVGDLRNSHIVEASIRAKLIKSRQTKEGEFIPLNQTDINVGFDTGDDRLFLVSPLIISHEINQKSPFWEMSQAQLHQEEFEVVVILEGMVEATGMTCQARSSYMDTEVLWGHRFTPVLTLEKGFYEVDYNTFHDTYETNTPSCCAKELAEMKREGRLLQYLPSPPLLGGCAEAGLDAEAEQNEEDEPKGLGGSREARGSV
T3 sequence (P48544 whole entry, stated change not applied): as the sequence (P48544 whole entry S143F/N179D) above, with F143S, D179N counted along it
Nature of the data set: TEVC in Xenopus oocytes, Kir3.4/4(S143F, N179D). The settings on record: read-out: less inhibition of Kir3.4/4(S143F, N179D) than of Kir3.4/4(S143F). In kind it is cell-based. The procedure:
as §1

Molecules are shown by their SMILES. Several values for one entry are separate records, joined by “and”; a condition that tells them apart may be missing. Identical values can stand only once. Where only a bound is given, the exact number is not on record here.

T1 sequence (P48549 whole entry E141A): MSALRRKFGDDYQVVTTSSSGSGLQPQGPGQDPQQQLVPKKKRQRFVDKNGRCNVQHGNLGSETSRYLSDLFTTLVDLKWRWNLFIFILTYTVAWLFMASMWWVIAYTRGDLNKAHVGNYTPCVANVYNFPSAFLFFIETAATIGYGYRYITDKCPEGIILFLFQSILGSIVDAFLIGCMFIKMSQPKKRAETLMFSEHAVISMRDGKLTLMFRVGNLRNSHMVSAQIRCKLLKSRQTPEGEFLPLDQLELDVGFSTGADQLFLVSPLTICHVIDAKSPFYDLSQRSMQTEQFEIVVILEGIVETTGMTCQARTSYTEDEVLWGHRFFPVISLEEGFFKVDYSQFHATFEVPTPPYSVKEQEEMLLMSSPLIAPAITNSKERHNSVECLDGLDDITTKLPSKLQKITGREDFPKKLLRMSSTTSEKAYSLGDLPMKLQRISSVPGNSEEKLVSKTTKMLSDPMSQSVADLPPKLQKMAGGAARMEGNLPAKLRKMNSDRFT
T1 sequence (P48544 whole entry): as the sequence (P48544 whole entry S143F/N179D) above, with F143S, D179N counted along it

For `Cc1cc(CO)nc2cc3c(cc12)OC(C)(C)[C@H](O)[C@H]3NCCc1ccccc1` [BP-G1, (3R,4S)-7-(hydroxymethyl)-2,2,9-trimethyl-4-(2-phenylethylamino)-3,4-dihydropyrano[2,3-g]quinolin-3-ol], the fraction unbound in data set [1] is 0.11. On Kir3.1(E141A)/4, the “current block, Kir3.1(E141A)/4” value is reported as 25%. Moreover, the IC50 at Kir3.1/2 channel is 55.9 nM and 55 nM. For the same compound, the “time to reversal of carbachol’s effects on the heart rate” value in the data set on IKACh is reported as at most 5 min. The “RR interval 5 min after compound, given about 10 min after carbachol” value in the data set on IKACh (anesthetized mice, mean ± SD, N = 3) is recorded as 155.4 ± 5.5 ms. The inhibition at 1 µM at Kir3.4/4(S143F, N179D) stood at 20%.

Source of the values: article PMC8086025, “A benzopyran with antiarrhythmic activity is an inhibitor of Kir3.1-containing potassium channels” (The Journal of Biological Chemistry, 2021).
